Source: patent publication US11767341B2, “Lincosamide antibiotics and uses thereof” (President and Fellows of Harvard College, priority 2017, dated 2023)
Converted amounts (≈) assume the structure as drawn.

These compounds were tested on S. pneumoniae MMX 3028 cErmB (assay: MIC determination). Conditions: Streptococcus pneumoniae, MMX3028CERMB; S. pneumoniae MMX 3028 cErmB; read-out: MIC.
Type: cell-based

Compound	MIC [µg/mL]
C=CC1=CCO[C@@H]2[C@H](CN[C@@H]2C(=O)N[C@H]([C@H](C)Cl)[C@H]2OC(SC)[C@H](O)[C@H](O)C2O)C1 (stereo partly shown) [FSA-507041]	32 (≈ 69.1 µM)

What follows are compounds tested on P. aeruginosa MMX Mex parent strain (assay: MIC determination). Conditions: Pseudomonas aeruginosa.
Type: cell-based

Compound	MIC [µg/mL]
C=CC1=CCO[C@@H]2[C@H](CN[C@@H]2C(=O)N[C@H]([C@H](C)Cl)[C@H]2OC(SC)[C@H](O)[C@H](O)C2O)C1 (stereo partly shown) [FSA-507041]	> 32

What follows are compounds tested on S. pneumoniae ATCC 49619 (assay: MIC determination). Conditions: Streptococcus pneumoniae, ATCC49619; S. pneumoniae ATCC 49619; read-out: MIC.
Type: cell-based

Compound	MIC [µg/mL]
C=CC1=CCO[C@@H]2[C@H](CN[C@@H]2C(=O)N[C@H]([C@H](C)Cl)[C@H]2OC(SC)[C@H](O)[C@H](O)C2O)C1 (stereo partly shown) [FSA-507041]	≤ 0.03

Each compound was assayed on P. aeruginosa ATCC 27853 (assay: MIC determination). Conditions: Pseudomonas aeruginosa, ATCC27853.
Type: cell-based

Compound	MIC [µg/mL]
CCNC(=O)N1CCO[C@@H]2[C@H](CN[C@@H]2C(=O)N[C@H]([C@H](C)Cl)[C@H]2OC(SC)[C@H](O)C(O)C2O)C1 (stereo partly shown) [FSA-503004]	> 64
C=CC1=CCO[C@@H]2[C@H](CN[C@@H]2C(=O)N[C@H]([C@H](C)Cl)[C@H]2OC(SC)[C@H](O)[C@H](O)C2O)C1 (stereo partly shown) [FSA-507041]	> 32

What follows are compounds tested on S. pyogenes MMX 946 Macrolide-Resistant (assay: MIC determination). Conditions: Streptococcus pyogenes.
Type: cell-based

Compound	MIC [µg/mL]
C=CC1=CCO[C@@H]2[C@H](CN[C@@H]2C(=O)N[C@H]([C@H](C)Cl)[C@H]2OC(SC)[C@H](O)[C@H](O)C2O)C1 (stereo partly shown) [FSA-507041]	> 32

Each compound was assayed on E. coli MMX 0121 ΔTolC (assay: MIC determination). Conditions: Escherichia coli.
Type: cell-based

Compound	MIC [µg/mL]
C=CC1=CCO[C@@H]2[C@H](CN[C@@H]2C(=O)N[C@H]([C@H](C)Cl)[C@H]2OC(SC)[C@H](O)[C@H](O)C2O)C1 (stereo partly shown) [FSA-507041]	16 (≈ 34.6 µM)

What follows are compounds tested on E. coli MMX TolC parent strain (assay: MIC determination). Conditions: Escherichia coli.
Type: cell-based

Compound	MIC [µg/mL]
C=CC1=CCO[C@@H]2[C@H](CN[C@@H]2C(=O)N[C@H]([C@H](C)Cl)[C@H]2OC(SC)[C@H](O)[C@H](O)C2O)C1 (stereo partly shown) [FSA-507041]	> 32

The compounds below were run on S. aureus BAA 977 iErmA (assay: MIC determination). Conditions: Staphylococcus aureus, BAA977.
Type: cell-based

Compound	MIC [µg/mL]
CCNC(=O)N1CCO[C@@H]2[C@H](CN[C@@H]2C(=O)N[C@H]([C@H](C)Cl)[C@H]2OC(SC)[C@H](O)C(O)C2O)C1 (stereo partly shown) [FSA-503004]	> 64
C=CC1=CCO[C@@H]2[C@H](CN[C@@H]2C(=O)N[C@H]([C@H](C)Cl)[C@H]2OC(SC)[C@H](O)[C@H](O)C2O)C1 (stereo partly shown) [FSA-507041]	0.5 (≈ 1.08 µM)

These compounds were tested on K. pneumoniae ATCC 10031 (assay: MIC determination). Conditions: Klebsiella pneumoniae, ATCC10031.
Type: cell-based

Compound	MIC [µg/mL]
CCNC(=O)N1CCO[C@@H]2[C@H](CN[C@@H]2C(=O)N[C@H]([C@H](C)Cl)[C@H]2OC(SC)[C@H](O)C(O)C2O)C1 (stereo partly shown) [FSA-503004]	> 64

These compounds were tested on S. aureus ATCC 29213 (assay: MIC determination). Conditions: Staphylococcus aureus, ATCC29213.
Type: cell-based

Compound	MIC [µg/mL]
CCNC(=O)N1CCO[C@@H]2[C@H](CN[C@@H]2C(=O)N[C@H]([C@H](C)Cl)[C@H]2OC(SC)[C@H](O)C(O)C2O)C1 (stereo partly shown) [FSA-503004]	> 64

Same assay, conditions: Staphylococcus aureus, ATCC29213, S. aureus ATCC 29213; read-out: MIC

Compound	MIC [µg/mL]
C=CC1=CCO[C@@H]2[C@H](CN[C@@H]2C(=O)N[C@H]([C@H](C)Cl)[C@H]2OC(SC)[C@H](O)[C@H](O)C2O)C1 (stereo partly shown) [FSA-507041]	0.5 (≈ 1.08 µM)

What follows are compounds tested on S. aureus MMX 3035 cErmA (assay: MIC determination). Conditions: Staphylococcus aureus, MMX3035CERMA.
Type: cell-based

Compound	MIC [µg/mL]
C=CC1=CCO[C@@H]2[C@H](CN[C@@H]2C(=O)N[C@H]([C@H](C)Cl)[C@H]2OC(SC)[C@H](O)[C@H](O)C2O)C1 (stereo partly shown) [FSA-507041]	> 32

Each compound was assayed on H. influenzae ATCC 49247 (assay: MIC determination). Conditions: Haemophilus influenzae, ATCC49247.
Type: cell-based

Compound	MIC [µg/mL]
C=CC1=CCO[C@@H]2[C@H](CN[C@@H]2C(=O)N[C@H]([C@H](C)Cl)[C@H]2OC(SC)[C@H](O)[C@H](O)C2O)C1 (stereo partly shown) [FSA-507041]	16 (≈ 34.6 µM)

Each compound was assayed on S. pyogenes ATCC 19615 (assay: MIC determination). Conditions: Streptococcus pyogenes, ATCC19615; S. pyogenes ATCC 19615; read-out: MIC.
Type: cell-based

Compound	MIC [µg/mL]
C=CC1=CCO[C@@H]2[C@H](CN[C@@H]2C(=O)N[C@H]([C@H](C)Cl)[C@H]2OC(SC)[C@H](O)[C@H](O)C2O)C1 (stereo partly shown) [FSA-507041]	0.06 (≈ 0.13 µM)

Each compound was assayed on E. faecalis ATCC 29212 (assay: MIC determination). Conditions: Enterococcus faecalis, ATCC29212, read-out: MIC.
Type: cell-based

Compound	MIC [µg/mL]
C=CC1=CCO[C@@H]2[C@H](CN[C@@H]2C(=O)N[C@H]([C@H](C)Cl)[C@H]2OC(SC)[C@H](O)[C@H](O)C2O)C1 (stereo partly shown) [FSA-507041]	2 (≈ 4.32 µM)

These compounds were tested on E. faecalis MMX 847 Macrolide-Resistant (assay: MIC determination). Conditions: Enterococcus faecalis.
Type: cell-based

Compound	MIC [µg/mL]
C=CC1=CCO[C@@H]2[C@H](CN[C@@H]2C(=O)N[C@H]([C@H](C)Cl)[C@H]2OC(SC)[C@H](O)[C@H](O)C2O)C1 (stereo partly shown) [FSA-507041]	> 32

Each compound was assayed on E. coli MP-9 ΔTolC (assay: MIC determination). Conditions: Escherichia coli.
Type: cell-based

Compound	MIC [µg/mL]
CCNC(=O)N1CCO[C@@H]2[C@H](CN[C@@H]2C(=O)N[C@H]([C@H](C)Cl)[C@H]2OC(SC)[C@H](O)C(O)C2O)C1 (stereo partly shown) [FSA-503004]	> 64

Each compound was assayed on S. aureus MP-513 clinical cErm (assay: MIC determination). Conditions: Staphylococcus aureus.
Type: cell-based

Compound	MIC [µg/mL]
CCNC(=O)N1CCO[C@@H]2[C@H](CN[C@@H]2C(=O)N[C@H]([C@H](C)Cl)[C@H]2OC(SC)[C@H](O)C(O)C2O)C1 (stereo partly shown) [FSA-503004]	> 64

These compounds were tested on E. coli ATCC 25922 (assay: MIC determination). Conditions: Escherichia coli, ATCC25922.
Type: cell-based

Compound	MIC [µg/mL]
CCNC(=O)N1CCO[C@@H]2[C@H](CN[C@@H]2C(=O)N[C@H]([C@H](C)Cl)[C@H]2OC(SC)[C@H](O)C(O)C2O)C1 (stereo partly shown) [FSA-503004]	> 64
C=CC1=CCO[C@@H]2[C@H](CN[C@@H]2C(=O)N[C@H]([C@H](C)Cl)[C@H]2OC(SC)[C@H](O)[C@H](O)C2O)C1 (stereo partly shown) [FSA-507041]	> 32

These compounds were tested on S. aureus MP-549 msr(a) USA 300 (assay: MIC determination). Conditions: Staphylococcus aureus, USA300, S. aureus MP-549 msr(a) USA 300.
Type: cell-based

Compound	MIC [µg/mL]
CCNC(=O)N1CCO[C@@H]2[C@H](CN[C@@H]2C(=O)N[C@H]([C@H](C)Cl)[C@H]2OC(SC)[C@H](O)C(O)C2O)C1 (stereo partly shown) [FSA-503004]	> 64

These compounds were tested on B. fragilis ATCC 25285 (assay: MIC determination). Conditions: Bacteroides fragilis, ATCC25285; B. fragilis ATCC 25285; read-out: MIC.
Type: cell-based

Compound	MIC [µg/mL]
C=CC1=CCO[C@@H]2[C@H](CN[C@@H]2C(=O)N[C@H]([C@H](C)Cl)[C@H]2OC(SC)[C@H](O)[C@H](O)C2O)C1 (stereo partly shown) [FSA-507041]	2 (≈ 4.32 µM)

The compounds below were run on S. aureus Micromyx USA 300 (assay: MIC determination). Conditions: Staphylococcus aureus, USA300; S. aureus Micromyx USA 300; read-out: MIC.
Type: cell-based

Compound	MIC [µg/mL]
C=CC1=CCO[C@@H]2[C@H](CN[C@@H]2C(=O)N[C@H]([C@H](C)Cl)[C@H]2OC(SC)[C@H](O)[C@H](O)C2O)C1 (stereo partly shown) [FSA-507041]	0.25 (≈ 0.54 µM)

Each compound was assayed on S. pneumoniae MMX 3031 cMefA (assay: MIC determination). Conditions: Streptococcus pneumoniae, MMX3031CMEFA.
Type: cell-based

Compound	MIC [µg/mL]
C=CC1=CCO[C@@H]2[C@H](CN[C@@H]2C(=O)N[C@H]([C@H](C)Cl)[C@H]2OC(SC)[C@H](O)[C@H](O)C2O)C1 (stereo partly shown) [FSA-507041]	≤ 0.03

Each compound was assayed on P. aeruginosa MMX 3476 Δmex (assay: MIC determination). Conditions: Pseudomonas aeruginosa.
Type: cell-based

Compound	MIC [µg/mL]
C=CC1=CCO[C@@H]2[C@H](CN[C@@H]2C(=O)N[C@H]([C@H](C)Cl)[C@H]2OC(SC)[C@H](O)[C@H](O)C2O)C1 (stereo partly shown) [FSA-507041]	> 32

The compounds below were run on C. difficile BAA 1805 (assay: MIC determination). Conditions: Clostridioides difficile, BAA1805; C. difficile BAA 1805; read-out: MIC.
Type: cell-based

Compound	MIC [µg/mL]
C=CC1=CCO[C@@H]2[C@H](CN[C@@H]2C(=O)N[C@H]([C@H](C)Cl)[C@H]2OC(SC)[C@H](O)[C@H](O)C2O)C1 (stereo partly shown) [FSA-507041]	0.5 (≈ 1.08 µM)
